In series [1] the test system is TBEV, strain Hypr.
In series [2] the test system is TBEV, strain Hypr. Description: microbe, parasite or virus in culture. To be noted: Tick-borne encephalitis virus, Vero.
The nature of series [3]: Cytotoxicity assay (Cell Counting Kit-8) in PS cells. The settings on record: pig, porcine kidney stable (PS) cells.
Series [4] in a line: Cytotoxicity assay (Cell Counting Kit-8) in Vero cells. To be noted: African green monkey.
The nature of series [5]: Cytotoxicity assay (Cell Counting Kit-8) in HBCA cells. To be noted: human, human brain cortical astrocytes (HBCA).
Series [6] is described as follows: Cytotoxicity assay (Cell Counting Kit-8) in Huh-7 cells. To be noted: human, Huh-7 hepatocarcinoma cells.
A short description of series [7]: Cytotoxicity assay (Cell Counting Kit-8) in UKF-NB-4 cells. The settings on record: human, UKF-NB-4 neuroblastoma cells.
In series [8] the test system is endosomal acidification in Vero cells. Description: Analysis of endosomal acidification with acridine orange. Format: cell-based, African Green Monkey. To be noted: 20 min.
Another series concerns ZIKV strain Paraiba_01. Briefly: Mechanistic plaque number assay, ZIKV in Vero cells. Format: cell-based, Zika virus. The settings on record: diphyllin 1 100 µM, bafilomycin A1 100 nM.
Another series concerns HSV-1 strain MacIntyre. Description: Mechanistic plaque number assay, HSV-1 in Vero cells. To be noted: diphyllin 1 100 µM, bafilomycin A1 100 nM. In kind it is cell-based, herpes simplex virus type 1.
Series [9] can be described thus: Light sensitivity of the prepared sample. Format: physicochemical. To be noted: solid sample; surface coloration, detrimental to antivirus activities.
The test system of series [10] is WNV, strain Eg-101.
The subject of series [11] is ZIKV, strain Paraiba_01.
Series [12] deals with RVFV, strain H13/96.
In series [13] the test system is HSV-1, strain MacIntyre.
In series [14] the test system is RABV, strain CVS-11.
In series [15] the test system is Mardin-Darby canine kidney cells (MDCK). The settings on record: cited from earlier work.
The test system of series [16] is human lung carcinoma cells (A549). To be noted: cited from earlier work.
Series [17] relates to feline macrophage-like cells (fcwf-4). The settings on record: fcwf-4 cells; cited from earlier work.
In series [18] the test system is rabbit lung cells (RL-33). The settings on record: RL-33 cells; cited from earlier work.
Series [19] has as its system WNV, strain Eg-101. Description: microbe, parasite or virus in culture. To be noted: West Nile virus, Vero.
Series [20] relates to ZIKV, strain Paraiba_01. Description: microbe, parasite or virus in culture. The settings on record: Zika virus, Vero.
Series [21] deals with RVFV, strain H13/96. Description: microbe, parasite or virus in culture. The settings on record: Rift Valley fever virus, Vero.
The test system of series [22] is HSV-1, strain MacIntyre. Briefly: microbe, parasite or virus in culture. To be noted: Human alphaherpesvirus 1, Vero.
Series [23] relates to RABV, strain CVS-11. Description: microbe, parasite or virus in culture. The settings on record: Lyssavirus rabies, BHK-21, 72 h.
A short description of series [24]: Cytotoxicity assay (Cell Counting Kit-8) in BHK-21 cells. To be noted: hamster, BHK-21 cells (baby hamster kidney).
Where [25] appears, read: 3 h p.i. treatment then washing, plaques counted at 120 h.
Where [26] appears, read: compound kept for the whole 120 h p.i.
Setting [27] is: 3 h p.i. treatment then washing, plaques counted at 72 h.
Where [28] appears, read: compound kept for the whole 72 h p.i.

≈ marks a conversion by molar mass, not a printed value. Where two headings read alike, the source gives them in different places.

As to `COc1cc2c(O[C@@H]3O[C@H](CO)[C@@H](O)[C@H](O)[C@H]3O)c3c(c(-c4ccc5c(c4)OCO5)c2cc1OC)C(=O)OC3` [Cleistanthin B 8, diphyllin-4-β-D-glucopyranoside, reference compound], the “SI (CC50/EC50)” value with TBEV, strain Hypr [1] is given as above 18.08. Besides, the EC50 in the series on TBEV, strain Hypr [2] was 5.53 µM. Moreover, the CC50 at 48 h in series [3] is 78.9 µM; in [4], above 100 µM; in series [5], 2.08 µM; in series [6] it was 3.96 µM; in series [7] it was 6.17 µM. In [4], this compound came in with a CC50 at 72 h above 100 µM. In [4], this compound returned a CC50 at 144 h of 80.7 µM.
In the case of `COc1cc2c(O)c3c(c(-c4ccc5c(c4)OCO5)c2cc1OC)C(=O)OC3` [Diphyllin 1, 9-(3‣,4‣-methylenedioxyphenyl)-4-hydroxy-6,7-dimethoxynaphtho[2,3-c]furan-1(3H)-one], in series [8] (100 µM, versus DMSO control), the “red fluorescence intensity of acidic endosomes (acridine orange)” value is on record as “much reduced”. Further, the “susceptibility of ZIKV (plaque number)” value with ZIKV strain Paraiba_01 (setting [25]) and with ZIKV strain Paraiba_01 (setting [26]) was “susceptible” in each case. In addition, the “susceptibility of HSV-1 (plaque number)” value is “not susceptible” with HSV-1 strain MacIntyre (setting [27]) and “highly susceptible” in the series on HSV-1 strain MacIntyre (setting [28]). In addition, in series [9], the light sensitivity entry was “rather light-sensitive”. For the same compound, the “SI (CC50/EC50)” value in the series with TBEV, strain Hypr [1] is recorded as above 117.64; with WNV, strain Eg-101 [10], above 128.20; in the series on ZIKV, strain Paraiba_01 [11], above 185.19; in the series on RVFV, strain H13/96 [12], above 217.39; in the series on HSV-1, strain MacIntyre [13] it was above 169.49; in the series with RABV, strain CVS-11 [14], above 15.80. The “concentration at which complete HSV-1 suppression starts” value in the series with HSV-1, strain MacIntyre [13] is reported as at least 2.5 µM. Also, in the series with RABV, strain CVS-11 [14], the “drop in RABV RNA copies/µL compared with RABV-infected control cells” value is 10^2. The CC50 in [15] was 3.48 µM; in series [16], 24 µM; in series [17] it was 5.99 µM; in [18], 63 µg/mL (≈ 166 µM). Moreover, the EC50 amounted to 0.85 µM in the series with TBEV, strain Hypr [2]; 1.04 µM in the series on TBEV, strain Hypr [2] (48 h); 0.78 µM in the series on WNV, strain Eg-101 [19]; 0.54 µM with ZIKV, strain Paraiba_01 [20]; 0.46 µM with RVFV, strain H13/96 [21]; 0.59 µM in the series on HSV-1, strain MacIntyre [22]. Besides, a half-maximal response in the series with RABV, strain CVS-11 [23] (EC50) required 6.33 µM. The CC50 at 48 h was 92.4 µM in series [3]; above 100 µM in [4]; 3.39 µM in series [5]; 1.89 µM in series [6]; 11.1 µM in series [7]. For the same compound, the CC50 at 72 h in series [4] and in series [24] was above 100 µM in each case. The CC50 at 144 h in series [4] was 18.2 µM.
As to `CO/C1=C\C(C)=C\[C@@H](C)[C@@H](O)[C@@H](C)C/C(C)=C/C=C/[C@H](OC)[C@@H]([C@@H](C)[C@@H](O)[C@H](C)[C@@]2(O)C[C@@H](O)[C@H](C)[C@@H](C(C)C)O2)OC1=O` [bafilomycin A1, reference compound], in [8] (100 nM, positive control), the “red fluorescence intensity of acidic endosomes (acridine orange)” value is on record as “all the more obvious”. Further, the “susceptibility of ZIKV (plaque number)” value in the series with ZIKV strain Paraiba_01 (setting [25]) and in the series with ZIKV strain Paraiba_01 (setting [26]) was “susceptible” throughout. The “susceptibility of HSV-1 (plaque number)” value in the series on HSV-1 strain MacIntyre (setting [27]) and in the series on HSV-1 strain MacIntyre (setting [28]) was “not susceptible” each time. Further, in the series on HSV-1, strain MacIntyre [13], the “effect on HSV-1 virus titers” value is “no effect”. Further, the half-maximal effective concentration (EC50) is 0.00244 µM in the series on ZIKV, strain Paraiba_01 [20] (48 h) and above 0.1 µM in the series with HSV-1, strain MacIntyre [22] (48 h). For the same compound, in series [4], the viability at 48 h, 0.15 µM is around 80%.
For `COc1cc2c(O)c3c(c(-c4ccc5c(c4)OCO5)c2cc1OC)C(=O)OC3` [commercial product, diphyllin], the EC50 with TBEV, strain Hypr [1] came to 1.24 µM.

The values above are taken from paper PMC8874615 (Viruses, 2022).
